Legend:
CDK1/CycB = molecular target: T1, CDK1/CycB (Homo sapiens, UniProt P06493); experiment: CDK1/CycB kinase assay (33P-ATP incorporation into histone IIIS, filter strip scintillation); format: biochemical; details: recombinant CDK1- and CycB-GST fusion proteins; 0,5 µM ATP; 10 min at 22°C; substrate Histon IIIS; read-out: CDK1/CycB (Assay 1) Konzentration der halbmaximalen Inhibition der Enzymaktivität, IC50
T1 construct: GST; purchased ProQinase GmbH, Freiburg; host or cells: baculovirus-infected Sf9 insect cells
Protocol: Assay 1: CDK1/CycB Kinase Assay
Rekombinante CDK1- und CycB-GST-Fusionsproteine, gereinigt aus Bakulovirusinfizierten Insektenzellen (Sf9), wurden von ProQinase GmbH, Freiburg, gekauft. Das als Kinase-Substrat verwendet Histon IIIS ist über die Fa. Sigma käuflich zu erwerben.
(§1) CDK1/CycB (200 ng/Messpunkt) wurde für 10 min bei 22°C in Anwesenheit verschiedener Konzentrationen an Testsubstanzen (0 µM, sowie innerhalb des Bereiches 0,001 - 10 µM) in Assaypuffer [50 mM Tris/HCl pH8,0; 10 mM MgCl2; 0,1 mM Na ortho-Vanadat; 1,0 mM Dithiothreitol; 0,5 µM Adenosintrisphosphat (ATP); 10 µg/Messpunkt Histon IIIS; 0,2 µCi/Messpunkt ^33P-gamma ATP; 0,05% NP40; 1,25% Dimethylsulfoxid] inkubiert. Die Reaktion wurde durch Zugabe von EDTA-Lösung (250 mM; pH8,0; 15 µl/Messpunkt) gestoppt.
(§2) Von jedem Reaktionsansatz wurden 15 µl auf P30 Filterstreifen (Fa. Wallac) aufgetragen, und nicht-eingebautes ^33P-ATP wurde durch dreimaliges Waschen der Filterstreifen für je 10 min in 0,5%iger Phosphorsäure entfernt. Nach dem Trocknen der Filterstreifen für 1 Stunde bei 70°C wurden die Filterstreifen mit Szintillator-Streifen (MeltiLex™ A, Fa. Wallac) bedeckt und für 1 Stunde bei 90°C eingebrannt. Die Menge an eingebautem ^33P (Substratphosphorylierung) wurde durch Szintillationsmessung in einem Gamma-Strahlungsmessgerät (Wallac) bestimmt. […]

CDK2/CycE = molecular target: T2, CDK2/CycE (Homo sapiens, UniProt P24941); experiment: CDK2/CycE kinase assay (33P-ATP incorporation into histone IIIS, filter strip scintillation); format: biochemical; details: recombinant CDK2- and CycE-GST fusion proteins; 0,5 µM ATP; 10 min at 22°C; substrate Histon IIIS; read-out: CDK2/CycE (Assay 2) Konzentration der halbmaximalen Inhibition der Enzymaktivität, IC50
T2 construct: GST; purchased ProQinase GmbH, Freiburg; host or cells: baculovirus-infected Sf9 insect cells
Protocol: Assay 2: CDK2/CycE Kinase Assay
Rekombinante CDK2- und CycE-GST-Fusionsproteine, gereinigt aus Bakulovirusinfizierten Insektenzellen (Sf9), wurden von ProQinase GmbH, Freiburg, gekauft. Histon IIIS, das als Kinase-Substrat verwendet wurde, wurde bei der Fa. Sigma gekauft.
as §1, with “CDK2/CycE (50” for “CDK1/CycB (200”
as §2, with “(MeItiLex™” for “(MeltiLex™”

T1 sequence (P06493 whole entry, the tested form may be a part): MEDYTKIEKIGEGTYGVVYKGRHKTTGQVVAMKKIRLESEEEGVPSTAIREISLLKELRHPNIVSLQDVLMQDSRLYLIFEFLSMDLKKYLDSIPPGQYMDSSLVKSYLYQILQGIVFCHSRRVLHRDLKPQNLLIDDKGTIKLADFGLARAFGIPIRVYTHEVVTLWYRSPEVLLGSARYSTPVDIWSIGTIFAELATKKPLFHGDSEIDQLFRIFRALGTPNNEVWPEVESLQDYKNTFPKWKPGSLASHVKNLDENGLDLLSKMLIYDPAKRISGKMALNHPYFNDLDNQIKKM
T1 sequence (P14635 whole entry partner, the tested form may be a part): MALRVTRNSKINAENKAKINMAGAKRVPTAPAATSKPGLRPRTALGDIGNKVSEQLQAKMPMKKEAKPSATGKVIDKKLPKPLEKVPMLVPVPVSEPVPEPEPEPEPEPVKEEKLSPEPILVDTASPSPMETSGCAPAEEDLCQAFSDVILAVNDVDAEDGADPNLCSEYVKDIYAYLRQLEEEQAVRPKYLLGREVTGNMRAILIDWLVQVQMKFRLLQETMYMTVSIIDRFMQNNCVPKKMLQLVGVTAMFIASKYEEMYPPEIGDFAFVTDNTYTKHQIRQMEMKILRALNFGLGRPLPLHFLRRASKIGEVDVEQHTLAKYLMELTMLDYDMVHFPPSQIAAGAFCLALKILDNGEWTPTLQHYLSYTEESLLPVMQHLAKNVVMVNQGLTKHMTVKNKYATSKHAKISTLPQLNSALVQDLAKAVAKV

| IC50 (CDK1/CycB) [nM] | IC50 (CDK2/CycE) [nM] | SMILES |
| --- | --- | --- |
| 7 | 5 | C[C@@H](O)[C@@H](C)Oc1nc(Nc2ccc([S+](C)[O-])cc2)ncc1C(F)(F)F (stereo partly drawn) [Beispiel 1, (2R,3R)-3-[2-(4-Methansulfinyl-phenylamino)-5-trifluormethyl-pyrimidin-4-yloxy]-butan-2-ol] |
| 30 | 12 | C[C@@H](Oc1nc(Nc2ccc([S+](C)[O-])cc2)ncc1C(F)(F)F)C(C)(C)O (stereo partly drawn) [Beispiel 2, (R)-3-[2-(4-Methansulfinyl-phenylamino)-5-trifluormethyl-pyrimidin-4-yloxy]-2-methyl-butan-2-ol] |

— patent EP2179993A1, “Sulfoxide substituted aniline pyrimidine derivatives as CDK inhibitors, their manufacture and use as medicine” (Bayer Schering Pharma Aktiengesellschaft, priority 2008, dated 2010)
